Data published in patent US20090197279A1, “MICROTUBULE SYNTHESIS AS A BIOMARKER” (KINEMED, INC., priority 2005, published 2009).
“Also recorded” adds a separate entry of the source.

Test system: C57BL/6JBomTac mice
Assay: Contextual fear conditioning (CFC), freezing behavior
Type: in vivo, mouse
Source text: FIG. 10 depicts microtubule/tubulin exchange during hippocampus-dependent contextual memory. (A) Protocol for measurement of microtubule/tubulin exchange during contextual fear conditioning (CFC). Tubulin dimers and microtubules subsets were labeled to plateau through continuous ^2H2O labeling, starting one day before CFC training. Labeling was continued throughout CFC training (Day 2) and the contextual conditioning test until mice were euthanized (Day 3). Vehicle or nocodazole treated-mice were injected 4 hours before CFC training, consisting of three pairings of conditioned and unconditioned stimuli inside an observation chamber, as described in Example 7 below. […] Microtubule subpopulations were fractionated as described below, and the percentage of newly synthesized tubulin was quantified by GC/MS (mean±SD, n=3). […]
Fear conditioning experiments were done as previously described (Bourtchouladze, R. et al. Different training procedures recruit either one or two critical periods for contextual memory consolidation, each of which requires protein synthesis and PKA. Learn. Mem. 5, 365-374 (1998)). […] On day later, contextual conditioning was assessed for 3 consecutive minutes in the chamber in which the mice were trained (CFC test). […]

For `COC(=O)Nc1nc2ccc(C(=O)c3cccs3)cc2[nH]1` [nocodazole], the “freezing behavior (% of freezing to context), CFC test” value (nocodazole 0.2 mg/kg i.p. 4 hours before CFC training, test one day after training, vs vehicle-treated mice) was “significant reduction; also recorded: significantly lower” and the “contextual fear responses measured immediately after training” value (nocodazole vs vehicle, data not shown) was “similar”.
